Data from patent US20220380314A1, “SUBSTITUTED, SATURATED AND UNSATURATED N-HETEROCYCLIC CARBOXAMIDES AND RELATED COMPOUNDS FOR THEIR USE IN THE TREATMENT OF MEDICAL DISORDERS” (Bial - R&D Investments, S.A., priority 2019, published 2022).
Values after ≈ are worked out from the molar mass of the structure shown. Where two headings read alike, the source gives them in different places.

What was measured:
[1] = Compound solubility in water; format: physicochemical
acid ceramidase (hACR) = target: T1, acid ceramidase (hACR) (Homo sapiens, UniProt Q13510); experiment: Acid ceramidase inhibition, biochemical fluorescent assay with cell lysates overexpressing acid ceramidase, substrate Rbm14-12
T1 construct: expressed in transfected cells; cell lysate used
T1 sequence (Q13510 143-395 limits assumed): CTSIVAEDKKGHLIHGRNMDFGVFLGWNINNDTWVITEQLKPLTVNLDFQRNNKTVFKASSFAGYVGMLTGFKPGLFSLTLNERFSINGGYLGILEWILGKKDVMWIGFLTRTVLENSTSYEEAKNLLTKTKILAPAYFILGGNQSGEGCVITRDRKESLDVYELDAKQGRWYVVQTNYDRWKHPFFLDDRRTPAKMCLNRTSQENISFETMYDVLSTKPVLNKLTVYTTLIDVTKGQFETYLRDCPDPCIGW
T1 sequence (Q13510 22-142 limits assumed): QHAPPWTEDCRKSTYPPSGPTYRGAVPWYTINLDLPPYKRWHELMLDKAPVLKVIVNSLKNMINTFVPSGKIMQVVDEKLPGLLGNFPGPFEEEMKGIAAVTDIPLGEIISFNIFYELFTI
Protocol: The ability of exemplary compounds to inhibit acid ceramidase was measured.
Cell lysates overexpressing acid ceramidase were used as the enzyme source for compound potency determination in a biochemical fluorescent assay. Briefly, compounds were preincubated with 10 µg protein of cell lysates in a dose-response manner for 1 hr at RT in the assay buffer containing 25 mM NaAC and 100 mM NaCl, pH 4.5. The reaction was initiated by the addition of substrate Rbm14-12 at a final concentration of 6.3 μM. The reaction was run at RT for 1 hr before it was stopped by the addition of the stopping buffer containing 20% methanol (v/v), 1 mg/ml NaIO4, 0.1 M glycine, pH 10.6. The samples were incubated with the stopping buffer at RT for 1 hr to allow the fluorescent product to be formed. Finally the plate was read with SpectraMax i3 plate reader (Molecular Devices) at ex360 nm and em446 nm. Data were collected and used to determine the IC50 values of compounds by curve fitting to the four-parameter inhibition equation.
The symbol “A” indicates inhibition of less than 0.2 μM; the symbol “B” indicates inhibition in the range of 0.2 μM up to 1 μM; and the symbol “C” indicates inhibition of greater than 1 μM.

[2] = cell lysates overexpressing acid ceramidase, 1 hr preincubation at RT, pH 4.5, substrate Rbm14-12 6.3 μM, read-out: hACR IC50

Row | SMILES | solubility [1] [µM] | IC50 (acid ceramidase (hACR); [2]) [µM] | IC50 (acid ceramidase (hACR)) [µM]
1 | CC1(C)CCCN1C(=O)NCCc1ccccc1 [Example 54, 2,2-Dimethyl-N-phenethylpyrrolidine-1-carboxamide] | 25.6 (≈ 6.31 µg/mL) | > 1 | –
2 | CC1(C)CCc2c(N3CCOCC3)cccc2N1C(=O)NCCc1ccccc1 [Example 11, 2,2-Dimethyl-5-morpholino-N-phenethyl-3,4-dihydroquinoline-1(2H)-carboxamide] | 8.1 (≈ 3.19 µg/mL) | 0.2 to 1 | –
3 | CN1CC(c2ccccc2)N(C(=O)NCCCCc2ccccc2)C(C)(C)C1 (stereo not drawn) [Example 165, 2,2,4-Trimethyl-6-phenyl-N-(4-phenylbutyl)piperazine-1-carboxamide] | 71.6 (≈ 27.2 µg/mL) | < 0.2 | –
4 | CC1(C)CCc2cccc(F)c2N1C(=O)NCCc1ccccc1 [Example 35, 8-Fluoro-2,2-dimethyl-N-phenethyl-3,4-dihydroquinoline-1(2H)-carboxamide] | 6.02 (≈ 1.97 µg/mL) | 0.2 to 1 | –
5 | CCCCNC(=O)N1CCC2(CCCCO2)CC1(C)C (stereo not drawn) [Example 31, N-Butyl-8,8-dimethyl-1-oxa-9-azaspiro[5.5]undecane-9-carboxamide] | 32 (≈ 9.04 µg/mL) | > 1 | –
6 | COC1CC(C)(C)N(C(=O)NCCc2ccccc2)c2ccccc21 (stereo not drawn) [Example 19, 4-Methoxy-2,2-dimethyl-N-phenethyl-3,4-dihydroquinoline-1(2)-carboxamide] | 6.5 (≈ 2.2 µg/mL) | 0.2 to 1 | –
7 | CN1CCC(c2ccc3c(c2)CCC(C)(C)N3C(=O)NCCc2ccccc2)CC1 [Example 23, 2,2-Dimethyl-6-(1-methylpiperidin-4-yl)-N-phenethyl-3,4-dihydroquinoline-1(2H)-carboxamide] | 33.6 (≈ 13.6 µg/mL) | 0.2 to 1 | –
8 | CN1CC(c2ccc3c(c2)N(C(=O)NCCc2ccccc2)C(C)(C)CC3)C1 [Example 50] | 32.2 (≈ 12.2 µg/mL) | < 0.2 | –
9 | CN1CC(c2cccc3c2CCC(C)(C)N3C(=O)NCCc2ccccc2)C1 [Example 49] | 35.3 (≈ 13.3 µg/mL) | 0.2 to 1 | –
10 | CCCCNC(=O)N1CCN(C)CC1(C)C [Example 37, N-Butyl-2,2,4-trimethylpiperazine-1-carboxamide] | 19.1 (≈ 4.34 µg/mL) | > 1 | –
11 | COC1CCN(C(=O)NCCc2ccccc2)C(C)(C)C1 (stereo not drawn) [Example 36, 4-Methoxy-2,2-dimethyl-N-phenethylpiperidine-1-carboxamide] | 33.4 (≈ 9.7 µg/mL) | – | –
12 | CN1CCC(c2ccc3c(c2)N(C(=O)NCCc2ccccc2)CCC3)CC1 [Example 3, 7-(1-Methylpiperidin-4-yl)-N-phenethyl-3,4-dihydroquinoline-1(2H)-carboxamide] | 38.7 (≈ 14.6 µg/mL) | > 1 | –
13 | CCCCNC(=O)N1c2cccc(N3CCN(C)CC3)c2CCC1(C)C [Example 33, N-Butyl-2,2-dimethyl-5-(4-methylpiperazin-1-yl)-3,4-dihydroquinoline-1(2H)-carboxamide] | 22.7 (≈ 8.14 µg/mL) | 0.2 to 1 | –
14 | O=C(NCCCc1ccccc1)N1CCCC12CCCC2 [Example 57, N-(3-Phenylpropyl)-1-azaspiro[4.4]nonane-1-carboxamide] | 19.4 (≈ 5.56 µg/mL) | > 1 | –
15 | O=C(NCCCc1ccccc1)N1CCOCC12CCCC2 [Example 60, N-(3-Phenylpropyl)-9-oxa-6-azaspiro[4.5]decane-6-carboxamide] | 25.2 (≈ 7.62 µg/mL) | > 1 | –
16 | CC1(C)CCc2c(C#N)cccc2N1C(=O)NCCc1ccccc1 [Example 47, 5-cyano-2,2-dimethyl-N-phenethyl-3,4-dihydroquinoline-1(2H)-carboxamide] | 1.7 (≈ 0.567 µg/mL) | 0.2 to 1 | –
17 | CN(C(=O)NCCCC1(C(F)(F)F)CC1)C12CCC(CC1)CC2 [Example 71, 1-(Bicyclo[2.2.2]octan-1-yl)-1-methyl-3-(3-(1-(trifluoromethyl)cyclopropyl)propyl)urea] | 5.9 (≈ 1.96 µg/mL) | 0.2 to 1 | –

Row | SMILES | solubility [1] [µM] | IC50 (acid ceramidase (hACR); [2]) [µM] | IC50 (acid ceramidase (hACR)) [µM]
18 | COc1cccc2c1N(C(=O)NCCc1ccccc1)C(C)(C)CC2 [Example 68, 8-Methoxy-2,2-dimethyl-N-phenethyl-3,4-dihydroquinoline-1(2H)-carboxamide] | 8.2 (≈ 2.78 µg/mL) | < 0.2 | –
19 | CN1CC(C)(C)N(C(=O)NCCc2ccccc2)c2ccccc21 [Example 7, 2,2,4-Trimethyl-N-phenethyl-3,4-dihydroquinoxaline-1(2H)-carboxamide] | 6.7 (≈ 2.17 µg/mL) | 0.2 to 1 | –
20 | CC1(C)CCc2c(C3COC3)cccc2N1C(=O)NCCc1ccccc1 [Example 51] | 0.9 (≈ 0.328 µg/mL) | 0.2 to 1 | –
21 | CC1(C)Cc2ccccc2CN1C(=O)NCCc1ccccc1 [Example 22, 3,3-Dimethyl-N-phenethyl-3,4-dihydroisoquinoline-2(1H)-carboxamide] | 5.7 (≈ 1.76 µg/mL) | 0.2 to 1 | –
22 | COc1ccc(C2COCC(C)(C)N2C(=O)NCC2CCOCC2)cc1 (stereo not drawn) [Example 145, 5-(4-Methoxyphenyl)-3,3-dimethyl-N-(tetrahydropyran-4-ylmethyl)morpholine-4-carboxamide] | 91.3 (≈ 33.1 µg/mL) | – | 0.2 to 1
23 | CN1CCC(c2cccc3c2CN(C(=O)NCCc2ccccc2)C(C)(C)C3)CC1 [Example 20, 3,3-Dimethyl-8-(1-methylpiperidin-4-yl)-N-phenethyl-3,4-dihydroisoquinoline-2(1H)-carboxamide] | 32.2 (≈ 13.1 µg/mL) | 0.2 to 1 | –
24 | CN(C(=O)NCCCc1ccccc1)C12CCC(CC1)CC2 [Example 63, 1-(Bicyclo[2.2.2]octan-1-yl)-1-methyl-3-(3-phenylpropyl)urea] | 3.1 (≈ 0.931 µg/mL) | < 0.2 | –
25 | CC1(C)CC(Oc2ccccc2)CCN1C(=O)NCCCCc1ccccc1 (stereo not drawn) [Example 89, 2,2-Dimethyl-4-phenoxy-N-(4-phenylbutyl)piperidine-1-carboxamide] | 0.01 (≈ 0.00381 µg/mL) | < 0.2 | –
26 | CCCCNC(=O)N1CCC(OC2CCN(C)CC2)CC1(C)C (stereo not drawn) [Example 39, N-Butyl-2,2-dimethyl-4-((1-methylpiperidin-4-yl)oxy)piperidine-1-carboxamide] | 34.8 (≈ 11.3 µg/mL) | > 1 | –
27 | CC1(C)CC(F)=CCN1C(=O)NCCCc1ccccc1 [Example 62, 4-fluoro-2,2-dimethyl-N-(3-phenylpropyl)-3,6-dihydropyridine-1(2H)-carboxamide] | 15 (≈ 4.36 µg/mL) | > 1 | –
28 | CC(C)CCNC(=O)N1CCC(Oc2ccccc2)CC1(C)C (stereo not drawn) [Example 41, N-iso-Pentyl-2,2-dimethyl-4-phenoxypiperidine-1-carboxamide] | 3.7 (≈ 1.18 µg/mL) | 0.2 to 1 | –
29 | COc1ccc(C2COCC(C)(C)N2C(=O)NCCOCC2CC2)cc1 (stereo not drawn) [Example 157, N-[2-(Cyclopropylmethoxy)ethyl]-5-(4-methoxyphenyl)-3,3-dimethylmorpholine-4-carboxamide] | > 100 | < 0.2 | –
30 | CCCCCNC(=O)N1C(c2ccc(F)cc2)COCC1(C)C (stereo not drawn) [Example 137, 5-(4-Fluorophenyl)-3,3-dimethyl-N-pentylmorpholine-4-carboxamide] | 93 (≈ 30 µg/mL) | < 0.2 | –
31 | CC1(C)Cc2ccccc2N1C(=O)NCCc1ccccc1 [Example 67, 2,2-Dimethyl-N-phenethylindoline-1-carboxamide] | 8.3 (≈ 2.44 µg/mL) | > 1 | –
32 | COCCNC(=O)N1c2ccccc2CCC1(C)C [Example 32, N-(2-Methoxyethyl)-2,2-dimethyl-3,4-dihydroquinoline-1(2H)-carboxamide] | 28.7 (≈ 7.53 µg/mL) | – | –
33 | CC1(C)CC(=O)C(Cc2ccccc2)CN1C(=O)NCCCCc1ccccc1 (stereo not drawn) [Example 121, 5-Benzyl-2,2-dimethyl-4-oxo-N-(4-phenylbutyl)piperidine-1-carboxamide] | – | < 0.2 | –
